Molecules are shown by their SMILES.

For one test, the system named is ovariectomized rats. Kind of test: Vaginal cornification bioassay in ovariectomized rats, 7 days, sc or po. Type of test: in vivo, rat. The source says:
Uterine weight increase in the rat is more commonly used as a measure of estrogenicity. […] In the early 1920s it was discovered that follicular fluid from the pig ovary contained a factor(s) that caused cornification/keratinization of the vaginal epithelium in the rat (Allen and Doisy, 1923, JAMA, 81, 819-821; Allen and Doisy, 1924, Am. J. Physiol., 69, 577-588). The so-called vaginal cornification response in rats subsequently provided a bioassay for testing estrogenicity. Vaginal epithelial cornification/keratinization in ovariectomized rats can be produced only by compounds considered to be true estrogens (Jones et al, 1973, Fert. Steril. 24, 284-291). […] Adult intact female CD rats were ovariectomized to induce estrogen deficiency. […] Castrate vaginal smears are indicative that complete ovariectomy was achieved. Treatment commenced following completion of the 7 days of smearing (day 0=first day of dosing). Animals were dosed, once daily for 7 consecutive days. Daily vaginal lavages continued to be obtained for 7 days after dosing was initiated in order to detect vaginal cornification, as an indication of an estrogenic response. A drop of vaginal washings was placed on a glass slide and examined by light microscopy to detect the presence or absence of cornified epithelial cells. Vaginal lavages were obtained prior to dosing on days 0-6 and prior to necropsy on day 7. […]

A further test deals with OVX-rats. Kind of test: Indentation test of distal femur (bone biomechanical strength), OVX rat. The settings on record: 4 weeks; for Energy / Maximum load / Stiffness / Ultimate strength: po, distal femur. Type of test: in vivo. As for the experimental part: The ovariectomized aged rat was used as a model for the human disease osteoporosis. This is an established animal model, recommended by the United States Food and Drug Administration (FDA), to evaluate and assess potential agents for osteoporosis prevention and therapy. The anti-resorptive efficacy of estetrol (E4) was tested by ex vivo measuring total and trabecular bone mineral density and bone strength after 4 weeks of treatment at necropsy. 17α-ethinyl-estradiol (EE) and vehicle (1% ethanol/arachidis oil) served as controls in this bioassay.
Three months old female Sprague-Dawley rats were either sham-operated (Sham) or ovariectomized (OVX) one day prior to commencement of the dosing study. Animals were anesthetized using a ketamine/xylazine anesthetic mixture and underwent a bilateral ovariectomy or were sham-treated. A section of hair on the dorsal surface was shaved and an incision made overlying the lumbar region of the spine. The skin was separated from the underlying fascia so that a second incision could be made through the abdominal musculature approximately caudal to the kidneys. The ovaries were then exteriorized and removed and the musculature was closed with a single suture. The skin incision was closed using surgical staples.
Ten animals per treatment group were orally dosed once per day for four consecutive weeks. The dosing commenced 1 day after surgical removal of the ovaries and was administered by oral gavage using a syringe and stainless steel gavage needle at doses of 0.1 mg/kg /day EE, or either 2.5, 0.5 or 0.1 mg/kg/day E4. Vehicle control was daily administered to one group of OVX-animals and sham-operated rats. After treatment, anesthetized rats were subjected to cardiac puncture and asphyxiated by CO2 inhalation. Tibiae and femura were removed, cleaned of soft-tissue and fixed and stored in 70% ethanol/saline at 4° C. (tibia) or saline at 4° C. (femura) until fuirther analysis.
Ex vivo evaluation of bone biomechanical strength was performed with an indentation test at the distal femura. Prior to mechanical testing femura were rinsed in cold saline and carefully cleaned of any remaining adherent soft tissue. A 3-mm segment of the distal femoral metaphysis was cut directly proximal to the femoral condyle with a low-speed diamond saw under constant saline irrigation. The load was applied with a cylindrical indenter (with a flat testing face of 1.6 mm diameter) to the center of marrow cavity on the distal face of the segment. The indenter was allowed to penetrate the cavity at a constant displacement of 6 mm/min to a depth of 2 mm before load reversal.
The maximum load, stiffness and energy absorbed were determined from load displacement curves. Ultimate strength was calculated by dividing the maximum load by the indenter area. Furthermore, mean ultimate strength values are depicted in FIG. 2. […] Reductions in maximum load, stiffness, energy and ultimate strength were −68%, −68%, −27% and −68%, respectively, clearly accompanying the bone mineral density loss in estrogen deficient rats.

The target in test [1] is T1, human sex Hormone Binding Globulin (SHBG) (Homo sapiens, UniProt P04278).
T1 construct: Human SHBG was purified from transgenic mouse serum, as described previously; from tissue; host or cells: serum of mice transgenic for human SHBG
T1 sequence (P04278 30-402): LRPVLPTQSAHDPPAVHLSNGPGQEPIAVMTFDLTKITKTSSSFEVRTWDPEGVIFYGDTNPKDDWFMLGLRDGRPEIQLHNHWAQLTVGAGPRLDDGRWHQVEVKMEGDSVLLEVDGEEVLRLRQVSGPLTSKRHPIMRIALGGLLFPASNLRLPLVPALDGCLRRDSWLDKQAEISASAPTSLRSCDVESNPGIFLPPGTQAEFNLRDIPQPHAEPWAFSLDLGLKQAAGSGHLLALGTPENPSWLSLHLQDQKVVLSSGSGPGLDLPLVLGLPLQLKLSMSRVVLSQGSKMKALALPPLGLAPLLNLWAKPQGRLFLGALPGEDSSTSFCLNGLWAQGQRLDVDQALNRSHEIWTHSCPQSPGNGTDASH
Kind of test: Competitive steroid-binding assay, SHBG. The settings on record: [3H]DHT or [3H]estradiol as labeled ligands (FIG. 6). How it is done:
Human SHBG was treated for 30 min at room temperature with a dextran-coated charcoal (DCC) suspension in phosphate buffered saline (PBS) to remove any steroid ligand. After centrifugation (2,000×g for 10 min) to sediment the DCC, the supernatant containing the human SHBG was diluted in PBS to a concentration of 1 nM based on its steroid binding capacity.
After incubation for 1 h at room temperature the. reaction mixtures were placed in an ice bath for a further 15 muin. […] The average amounts of [^3H]labeled ligands bound to SHBG at each concentration of competitor (B) were expressed as a percentage of the average amounts of [^3H]labeled ligands bound to SHBG in the absence of competitor (B0), and were plotted against the concentration of competitor in each assay tube.

Test [2] relates to human breast cancer cells (MCF-7). Particulars: cited from earlier work.
In test [3] the test system is estrogen receptors in the human endometrium. Particulars: cited from earlier work.

For the compound `C[C@]12CC[C@@H]3c4ccc(O)cc4CC[C@H]3[C@@H]1[C@@H](O)[C@@H](O)[C@@H]2O` [E4, 1,3,5 (10)-estratrien-3,15α,16α,17β-tetrol], the “Number of Rats Exhibiting Estrogenic Response/Number of Rats Treated” value with ovariectomized rats (1.0 mg/kg/day, Day 7, 1 mg/kg/day) is listed as “all rats”. For the same compound, the “Number of Rats Exhibiting Estrogenic Response/Number of Rats Treated” value with ovariectomized rats (3.0 mg/kg/day, Day 7, 3 mg/kg/day) is “all rats”. For the same compound, the “effect on declines in maximum load, stiffness, energy and ultimate strength” value in the test on OVX-rats (oral treatment, dose-dependent) is “prevented the declines in maximum load, stiffness, energy and ultimate strength”. For the same compound, in the test with OVX-rats (0.1 mg/kg/day), the Energy is 0.09 mJ, the Maximum load is reported as 1.50 N, the Stiffness is listed as 28.00 N/mm and the Ultimate strength came to 0.80 N/mm2. In the test with OVX-rats (0.5 mg/kg/day), this compound came in with an Energy of 0.31 mJ, a Maximum load of 7.25 N, a Stiffness of 132.57 N/mm and a Ultimate strength of 3.85 N/mm2. Also, the “relative binding affinity for human SHBG” value in test [1] is “does not bind at all”. For the same compound, the “agonistic potency in in vitro cell proliferation, relative to 17β-estradiol” value in test [2] is given as 2%. Further, the “relative binding constant to the estrogen receptor compared to 17β-estradiol (100%)” value in test [3] (Tseng et al. 1976) was 6.25%. Besides, the “Relative binding to estrogen receptors, relative to 17β-estradiol” value in test [3] (Tseng et al. 1978) was 1.5%.

Source of the values: patent publication US8048869B2, “Pharmaceutical composition for use in hormone replacement therapy” (Pantarhei Bioscience B.V., priority 2001, dated 2011).
